Measured values taken from patent US10035790B2, “RORγ modulators” (BRISTOL-MYERS SQUIBB COMPANY, priority 2012, dated 2018).
Read-outs that look alike come from different tables or passages of the source.

Molecular target: T1, ligand binding domain of human RORγ (A262-S507) (Homo sapiens, UniProt P51449)
T1 construct: made in house; host or cells: E. coli
T1 sequence (P51449 262-507): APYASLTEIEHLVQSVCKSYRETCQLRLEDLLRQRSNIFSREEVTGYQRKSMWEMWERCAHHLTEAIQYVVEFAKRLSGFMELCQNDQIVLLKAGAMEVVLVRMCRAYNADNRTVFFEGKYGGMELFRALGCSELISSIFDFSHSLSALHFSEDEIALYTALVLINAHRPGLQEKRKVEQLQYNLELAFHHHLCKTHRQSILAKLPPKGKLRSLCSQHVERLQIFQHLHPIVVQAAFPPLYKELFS
Experiment: General RORγ SPA binding assay (competition with [3H]25-hydroxycholesterol)
Conditions: inhibition of [3H]25-hydroxycholesterol binding
In short: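 Scintillation counts from copper His-tag SPA beads (4 mg/mL, 30 min) gave percent inhibition of radioligand binding, from which IC50 values are derived. The E. coli-expressed His-tagged domain (50 nM) is first exposed to compound for 15 min at room temperature in PBS containing 0.5% fatty acid free BSA.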

[1] = RORγ SPA binding assay, read-out: IC50

SMILES	IC50 [1] [nM]	IC50 (IC50, RORγ SPA binding assay) [nM]
CC(=O)Nc1ncc(C(C)(O)COc2ccnc(C(F)(F)F)n2)c(C2CCN(C(=O)Nc3c(F)cccc3F)CC2)n1 (stereo not shown) [Compound D31, 4-[2-(Acetylamino)-5-(1-hydroxy-1-methyl-2-{[2-(trifluoromethyl)pyrimidin-4-yl]oxy}ethyl)pyrimidin-4-yl]-N-(2,6-difluorophenyl)piperidine-1-carboxamide]	119	–
CC(O)(COc1ccnc(C(F)(F)F)n1)c1cnc(NC2CC2)nc1C1CCN(C(=O)Nc2c(F)cccc2F)CC1 (stereo not shown) [Compound D34, 4-[2-(Cyclopropylamino)-5-(1-hydroxy-1-methyl-2-{[2-(trifluoromethyl)pyrimidin-4-yl]oxy}ethyl)pyrimidin-4-yl]-N-(2,6-difluorophenyl)piperidine-1-carboxamide]	15	–
CCNc1ncc(C(C)(O)COc2ccnc(C(F)(F)F)n2)c(C2CCN(C(=O)Nc3c(F)cccc3F)CC2)n1 (stereo not shown) [Compound D35, N-(2,6-Difluorophenyl)-4-[2-(ethylamino)-5-(1-hydroxy-1-methyl-2-{[2-(trifluoromethyl)pyrimidin-4-yl]oxy}ethyl)pyrimidin-4-yl]piperidine-1-carboxamide]	14.8	–
CNc1ncc(C(C)(O)COc2ccnc(C(F)(F)F)n2)c(C2CCN(C(=O)Nc3c(F)cccc3F)CC2)n1 (stereo not shown) [Compound D36, N-(2,6-Difluorophenyl)-4-[5-(1-hydroxy-1-methyl-2-{[2-(trifluoromethyl)pyrimidin-4-yl]oxy}ethyl)-2-(methylamino)pyrimidin-4-yl]piperidine-1-carboxamide]	15.8	–
COc1ccc(CNc2ncc(C(C)(O)COc3ccnc(C(F)(F)F)n3)c(C3CCN(C(=O)Nc4c(F)cccc4F)CC3)n2)c(OC)c1 (stereo not shown) [Compound D37, 4-[2-({[2,4-Bis(methyloxy)phenyl]methyl}amino)-5-(1-hydroxy-1-methyl-2-{[2-(trifluoromethyl)pyrimidin-4-yl]oxy}ethyl)pyrimidin-4-yl]-N-(2,6-difluorophenyl)piperidine-1-carboxamide]	112	–
CN(C)c1ncc(C(C)(O)COc2ccnc(C(F)(F)F)n2)c(C2CCN(C(=O)Nc3c(F)cccc3F)CC2)n1 (stereo not shown) [Compound D38, N-(2,6-Difluorophenyl)-4-[2-(dimethylamino)-5-(1-hydroxy-1-methyl-2-{[2-(trifluoromethyl)pyrimidin-4-yl]oxy}ethyl)pyrimidin-4-yl]piperidine-1-carboxamide]	25.9	–
CC(C)Oc1ncc(C(C)(O)COc2ccnc(C(F)(F)F)n2)c(C2CCN(C(=O)Nc3c(F)cccc3F)CC2)n1 (stereo not shown) [Compound D40, N-(2,6-Difluorophenyl)-4-{5-(1-hydroxy-1-methyl-2-{[2-(trifluoromethyl)pyrimidin-4-yl]oxy}ethyl)-2-[(1-methylethyl)oxy]pyrimidin-4-yl}piperidine-1-carboxamide]	29.6	–
CC(O)(COc1ccnc(C(F)(F)F)n1)c1cnc(OCC(F)F)nc1C1CCN(C(=O)Nc2c(F)cccc2F)CC1 (stereo not shown) [Compound D41, 4-{2-[(2,2-Difluoroethyl)oxy]-5-(1-hydroxy-1-methyl-2-{[2-(trifluoromethyl)pyrimidin-4-yl]oxy}ethyl)pyrimidin-4-yl}-N-(2,6-difluorophenyl)piperidine-1-carboxamide]	101	–
CC(O)(COc1ccnc(C(F)(F)F)n1)c1cnc(OC(CF)CF)nc1C1CCN(C(=O)Nc2c(F)cccc2F)CC1 (stereo not shown) [Compound D42, N-(2,6-Difluorophenyl)-4-[2-{[2-fluoro-1-(fluoromethyl)ethyl]oxy}-5-(1-hydroxy-1-methyl-2-{[2-(trifluoromethyl)pyrimidin-4-yl]oxy}ethyl)pyrimidin-4-yl]piperidine-1-carboxamide]	348	–
CC(O)(COc1ccnc(C(F)(F)F)n1)c1cnc(OCCF)nc1C1CCN(C(=O)Nc2c(F)cccc2F)CC1 (stereo not shown) [Compound D43, N-(2,6-Difluorophenyl)-4-{2-[(2-fluoroethyl)oxy]-5-(1-hydroxy-1-methyl-2-{[2-(trifluoromethyl)pyrimidin-4-yl]oxy}ethyl)pyrimidin-4-yl}piperidine-1-carboxamide]	22	–
CC(O)(COc1ccnc(C(F)(F)F)n1)c1cnc(N)nc1C1CCN(C(=O)Oc2c(F)cccc2F)CC1 (stereo not shown) [Compound D46, 2,6-Difluorophenyl 4-[2-amino-5-(1-hydroxy-1-methyl-2-{[2-(trifluoromethyl)pyrimidin-4-yl]oxy}ethyl)pyrimidin-4-yl]piperidine-1-carboxylate]	–	6.3
Cc1ncc(C(C)(O)Cc2cccc(C(F)(F)F)n2)c(C2CCN(C(=O)Nc3c(F)cccc3F)CC2)n1 (stereo not shown) [Compound D47, N-(2,6-Difluorophenyl)-4-(5-{1-hydroxy-1-methyl-2-[6-(trifluoromethyl)pyridin-2-yl]ethyl}-2-methylpyrimidin-4-yl)piperidine-1-carboxamide]	52.9	–
CC(O)(COc1cccc(C(F)(F)F)n1)c1cnc(N)nc1C1CCN(C(=O)Oc2c(F)cccc2F)CC1 (stereo not shown) [Compound D48, 2,6-Difluorophenyl 4-[2-amino-5-(1-hydroxy-1-methyl-2-{[6-(trifluoromethyl)pyridin-2-yl]oxy}ethyl)pyrimidin-4-yl]piperidine-1-carboxylate]	–	30.3

Further lines, with some results ahead:

IC50 [1] [nM]	SMILES	IC50 (IC50, RORγ SPA binding assay) [nM]
5	Cc1ncc(C(C)(O)COc2cccc(C(F)(F)F)n2)c(C2CCN(C(=O)Cc3c(F)cccc3F)CC2)n1 (stereo not shown) [Compound D24, 2-(4-{1-[(2,6-difluorophenyl)acetyl]piperidin-4-yl}-2-methylpyrimidin-5-yl)-1-{[6-(trifluoromethyl)pyridin-2-yl]oxy}propan-2-ol]	–
8.7	Cc1ncc(C(C)(O)COc2cccc(C(F)(F)F)n2)c(C2CCN(C(=O)Nc3c(F)cccc3F)CC2)n1 (stereo not shown) [Compound D25, N-(2,6-difluorophenyl)-4-[5-(1-hydroxy-1-methyl-2-{[6-(trifluoromethyl)pyridin-2-yl]oxy}ethyl)-2-methylpyrimidin-4-yl]piperidine-1-carboxamide]	–
12.6	CSc1ncc(C(C)(O)COc2cccc(C(F)(F)F)n2)c(C2CCN(C(=O)Nc3c(F)cccc3F)CC2)n1 (stereo not shown) [Compound D26, N-(2,6-Difluorophenyl)-4-[5-(1-hydroxy-1-methyl-2-{[6-(trifluoromethyl)pyridin-2-yl]oxy}ethyl)-2-(methylthio)pyrimidin-4-yl]piperidine-1-carboxamide]	–
3.6	CC(O)(COc1cccc(C(F)(F)F)n1)c1cnc(N)nc1C1CCN(C(=O)Nc2c(F)cccc2F)CC1 (stereo not shown) [Compound D27, 4-[2-Amino-5-(1-hydroxy-1-methyl-2-{[6-(trifluoromethyl)pyridin-2-yl]oxy}ethyl)pyrimidin-4-yl]-N-(2,6-difluorophenyl)piperidine-1-carboxamide]	–
14.7	CSc1ncc(C(C)(O)COc2ccnc(C(F)(F)F)n2)c(C2CCN(C(=O)Nc3c(F)cccc3F)CC2)n1 (stereo not shown) [Compound D28, N-(2,6-Difluorophenyl)-4-[5-(1-hydroxy-1-methyl-2-{[2-(trifluoromethyl)pyrimidin-4-yl]oxy}ethyl)-2-(methylthio)pyrimidin-4-yl]piperidine-1-carboxamide]	–
14.4	CC(O)(COc1ccnc(C(F)(F)F)n1)c1cnc(N)nc1C1CCN(C(=O)Nc2c(F)cccc2F)CC1 (stereo not shown) [Compound D29, 4-[2-Amino-5-(1-hydroxy-1-methyl-2-{[2-(trifluoromethyl)pyrimidin-4-yl]oxy}ethyl)pyrimidin-4-yl]-N-(2,6-difluorophenyl)piperidine-1-carboxamide]	–
4.3	CC(O)(COc1ccnc(C(F)(F)F)n1)c1cnc(N)nc1C1CCN(C(=O)Cc2c(F)cccc2F)CC1 (stereo not shown) [Compound D30, 2-(2-Amino-4-{1-[(2,6-difluorophenyl)acetyl]piperidin-4-yl}pyrimidin-5-yl)-1-{[2-(trifluoromethyl)pyrimidin-4-yl]oxy}propan-2-ol]	–
13.9	CC(=O)Nc1ncc(C(C)(O)COc2cccc(C(F)(F)F)n2)c(C2CCN(C(=O)Nc3c(F)cccc3F)CC2)n1 (stereo not shown) [Compound D32, 4-[2-(Acetylamino)-5-(1-hydroxy-1-methyl-2-{[6-(trifluoromethyl)pyridin-2-yl]oxy}ethyl)pyrimidin-4-yl]-N-(2,6-difluorophenyl)piperidine-1-carboxamide]	–
14	CC(=O)Nc1ncc(C(C)(O)COc2ccnc(C(F)(F)F)n2)c(C2CCN(C(=O)Cc3c(F)cccc3F)CC2)n1 (stereo not shown) [Compound D33, N-[4-{1-[(2,6-Difluorophenyl)acetyl]piperidin-4-yl}-5-(1-hydroxy-1-methyl-2-{[2-(trifluoromethyl)pyrimidin-4-yl]oxy}ethyl)pyrimidin-2-yl]acetamide]	–
5.1	CC(O)(COc1ccnc(C(F)(F)F)n1)c1cnc(NCC(F)F)nc1C1CCN(C(=O)Nc2c(F)cccc2F)CC1 (stereo not shown) [Compound D39, 4-{2-[(2,2-Difluoroethyl)amino]-5-(1-hydroxy-1-methyl-2-{[2-(trifluoromethyl)pyrimidin-4-yl]oxy}ethyl)pyrimidin-4-yl}-N-(2,6-difluorophenyl)piperidine-1-carboxamide]	–
4.6	COc1ncc(C(C)(O)COc2ccnc(C(F)(F)F)n2)c(C2CCN(C(=O)Nc3c(F)cccc3F)CC2)n1 (stereo not shown) [Compound D44, N-(2,6-Difluorophenyl)-4-[5-(1-hydroxy-1-methyl-2-{[2-(trifluoromethyl)pyrimidin-4-yl]oxy}ethyl)-2-(methyloxy)pyrimidin-4-yl]piperidine-1-carboxamide]	–
3.4	COc1ncc(C(C)(O)COc2cccc(C(F)(F)F)n2)c(C2CCN(C(=O)Nc3c(F)cccc3F)CC2)n1 (stereo not shown) [Compound D45, N-(2,6-Difluorophenyl)-4-[5-(1-hydroxy-1-methyl-2-{[6-(trifluoromethyl)pyridin-2-yl]oxy}ethyl)-2-(methyloxy)pyrimidin-4-yl]piperidine-1-carboxamide]	–
